ChEMBL document CHEMBL1152872, “Discovery of N-{[1-(propylsulfonyl)-4-pyridin-2-ylpiperidin-4-yl]methyl}benzamides as novel, selective and potent GlyT1 inhibitors” (Bioorg Med Chem Lett, 2009)
pIC50: −log10 of the molar value.

Experiments:
[1] = target: T1, Sodium- and chloride-dependent glycine transporter 1 (Homo sapiens, UniProt P48067); test: Inhibition of human glycine transporter 1
T1 sequence (P48067 whole entry): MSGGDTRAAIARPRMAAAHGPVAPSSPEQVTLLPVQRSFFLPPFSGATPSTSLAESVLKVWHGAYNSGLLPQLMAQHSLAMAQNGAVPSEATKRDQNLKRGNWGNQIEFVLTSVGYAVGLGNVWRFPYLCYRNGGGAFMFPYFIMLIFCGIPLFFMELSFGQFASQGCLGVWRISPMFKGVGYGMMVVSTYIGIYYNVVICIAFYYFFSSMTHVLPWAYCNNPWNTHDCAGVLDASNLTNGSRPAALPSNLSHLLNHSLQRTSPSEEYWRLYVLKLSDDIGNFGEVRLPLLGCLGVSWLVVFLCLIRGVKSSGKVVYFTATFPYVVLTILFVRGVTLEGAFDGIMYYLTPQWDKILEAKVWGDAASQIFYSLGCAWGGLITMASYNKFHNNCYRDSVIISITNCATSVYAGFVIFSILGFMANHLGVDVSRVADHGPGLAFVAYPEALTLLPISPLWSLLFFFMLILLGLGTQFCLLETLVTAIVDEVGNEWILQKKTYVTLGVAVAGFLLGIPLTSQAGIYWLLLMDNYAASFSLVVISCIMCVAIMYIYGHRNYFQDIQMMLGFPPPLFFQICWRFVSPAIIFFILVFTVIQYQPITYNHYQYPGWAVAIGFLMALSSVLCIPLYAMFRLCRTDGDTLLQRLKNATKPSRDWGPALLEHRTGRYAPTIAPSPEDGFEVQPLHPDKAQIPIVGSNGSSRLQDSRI

[2] = target: T2, Sodium- and chloride-dependent glycine transporter 2 (Homo sapiens, UniProt Q9Y345); test: Inhibition of glycine transporter 2
T2 sequence (Q9Y345 whole entry): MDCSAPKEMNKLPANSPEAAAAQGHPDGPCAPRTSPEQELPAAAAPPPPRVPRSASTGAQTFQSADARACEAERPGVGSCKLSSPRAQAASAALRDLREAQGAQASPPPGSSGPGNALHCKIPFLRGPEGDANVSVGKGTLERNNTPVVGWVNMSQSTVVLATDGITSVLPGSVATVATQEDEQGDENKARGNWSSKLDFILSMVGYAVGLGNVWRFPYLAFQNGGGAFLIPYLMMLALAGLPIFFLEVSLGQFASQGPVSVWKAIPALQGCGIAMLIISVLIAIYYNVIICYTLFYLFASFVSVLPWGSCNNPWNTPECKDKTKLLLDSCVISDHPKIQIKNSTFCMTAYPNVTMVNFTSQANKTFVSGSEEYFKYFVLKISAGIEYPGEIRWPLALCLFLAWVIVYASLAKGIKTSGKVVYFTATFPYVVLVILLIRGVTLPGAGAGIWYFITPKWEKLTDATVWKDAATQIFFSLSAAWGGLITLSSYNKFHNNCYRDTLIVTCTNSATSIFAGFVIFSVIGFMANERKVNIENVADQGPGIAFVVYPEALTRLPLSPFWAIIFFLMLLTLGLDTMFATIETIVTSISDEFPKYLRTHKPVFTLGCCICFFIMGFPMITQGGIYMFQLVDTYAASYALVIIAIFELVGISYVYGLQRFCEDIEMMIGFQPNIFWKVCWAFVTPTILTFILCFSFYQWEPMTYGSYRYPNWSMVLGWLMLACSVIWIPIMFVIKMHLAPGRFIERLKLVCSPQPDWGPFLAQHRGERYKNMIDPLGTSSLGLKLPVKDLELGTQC

[3] = target: T3, Sodium- and chloride-dependent taurine transporter (Homo sapiens, UniProt P31641); test: Inhibition of taurine transporter; format: single protein
T3 sequence (P31641 whole entry): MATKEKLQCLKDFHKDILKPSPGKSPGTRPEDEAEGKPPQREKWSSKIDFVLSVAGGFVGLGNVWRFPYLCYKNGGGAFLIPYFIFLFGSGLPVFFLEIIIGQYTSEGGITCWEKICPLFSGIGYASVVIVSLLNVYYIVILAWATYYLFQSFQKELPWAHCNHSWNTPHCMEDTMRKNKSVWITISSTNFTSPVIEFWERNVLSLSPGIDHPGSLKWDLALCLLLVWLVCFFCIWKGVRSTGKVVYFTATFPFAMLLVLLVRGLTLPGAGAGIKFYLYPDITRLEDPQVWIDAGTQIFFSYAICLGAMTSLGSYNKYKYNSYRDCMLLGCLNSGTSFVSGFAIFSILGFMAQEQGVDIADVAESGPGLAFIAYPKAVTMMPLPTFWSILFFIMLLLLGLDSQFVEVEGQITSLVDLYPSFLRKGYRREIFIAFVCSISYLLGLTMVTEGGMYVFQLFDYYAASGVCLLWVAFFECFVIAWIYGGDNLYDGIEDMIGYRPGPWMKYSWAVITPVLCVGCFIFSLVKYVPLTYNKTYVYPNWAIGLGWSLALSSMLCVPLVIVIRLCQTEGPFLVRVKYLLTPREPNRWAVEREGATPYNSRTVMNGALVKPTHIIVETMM

[4] = Solubility in water; format: physicochemical
[5] = target: T1, Sodium- and chloride-dependent glycine transporter 1; test: Inhibition of glycine transporter 1 by HTS assay

| SMILES | pIC50 [1] | pIC50 [2] | pIC50 [3] | solubility [4] [µg/mL] | pIC50 [5] |
| --- | --- | --- | --- | --- | --- |
| CCCS(=O)(=O)N1CCC(CNC(=O)c2ccc(Cl)cc2Cl)(c2cccnc2)CC1 | 7.16 | – | – | – | – |
| CCCS(=O)(=O)N1CCC(CNC(=O)c2cc(F)cc(F)c2Cl)(C2CCCCN2C)CC1 (stereo unspecified) | 7.37 | – | – | – | – |
| CCCS(=O)(=O)N1CCC(CNC(=O)c2ccc(Cl)cc2Cl)(c2cccc(N3CCOCC3)n2)CC1 | 6.39 | – | – | – | – |
| CCCS(=O)(=O)N1CCC(CNC(=O)c2ccccc2Cl)(c2cccc(N3CCOCC3)n2)CC1 | 6.32 | – | – | – | – |
| CCCS(=O)(=O)N1CCC(CNC(=O)c2c(Cl)ccc(Cl)c2F)(c2ccccn2)CC1.Cl | – | – | – | 570 | – |
| CCCS(=O)(=O)N1CCC(CNC(=O)c2ccccc2OC)(c2ccccc2)CC1 | – | – | – | – | 6.89 |
| CCCS(=O)(=O)N1CCC(CNC(=O)c2ccc(Cl)cc2Cl)(C2CCCCN2C)CC1 (stereo unspecified) | 8.02 | – | – | – | – |
| CCCS(=O)(=O)N1CCC(CNC(=O)c2ccc(Cl)cc2Cl)(c2cccc(C)n2)CC1 | 8.60 | < 4.52 | < 4.52 | – | – |
| CCCS(=O)(=O)N1CCC(CNC(=O)c2ccccc2)(C2CCCCN2C)CC1 (stereo unspecified) | 5.48 | – | – | – | – |
| CCCS(=O)(=O)N1CCC(c2ccccn2)([C@H](C)NC(=O)c2cc(F)cc(F)c2Cl)CC1 | 8.40 | < 4.52 | < 4.52 | – | – |
| CCCS(=O)(=O)N1CCC(c2ccccn2)([C@@H](C)NC(=O)c2ccc(Cl)cc2Cl)CC1 | 6.18 | – | – | – | – |
| CCCS(=O)(=O)N1CCC(CNC(=O)c2ccc(Cl)cc2Cl)(c2ccccn2)CC1.Cl | – | – | – | 850 | – |
| CCCS(=O)(=O)N1CCC(CNC(=O)c2ccccc2C)(C2CCCCN2C)CC1 (stereo unspecified) | 6.83 | – | – | – | – |
| CCCS(=O)(=O)N1CCC(CNC(=O)c2ccccc2Cl)(C2CCCCN2C)CC1 (stereo unspecified) | 7.23 | – | – | – | – |
| CCCS(=O)(=O)N1CCC(c2ccccn2)([C@H](C)NC(=O)c2ccccc2OC(F)(F)F)CC1 | 7.75 | < 4.52 | < 4.52 | – | – |
| CCCS(=O)(=O)N1CCC(CNC(=O)c2ccccc2OC(F)(F)F)(C2CCCCN2C)CC1 (stereo unspecified) | 7.67 | – | – | – | – |
| CCCS(=O)(=O)N1CCC(c2ccccn2)([C@H](C)NC(=O)c2ccc(Cl)cc2Cl)CC1 | 8.52 | < 4.52 | < 4.52 | – | – |
| CCCS(=O)(=O)N1CCC(CNC(=O)c2ccccc2OC(F)(F)F)(c2ccccn2)CC1 | 7.71 | < 4.52 | < 4.52 | – | – |
| CCCS(=O)(=O)N1CCC(CNC(=O)c2ccc(Cl)cc2Cl)(c2cccc(OC)n2)CC1 | 8.13 | < 4.52 | < 4.52 | – | – |
| CCCS(=O)(=O)N1CCC(c2ccccn2)([C@@H](C)NC(=O)c2ccccc2OC(F)(F)F)CC1 | 5.59 | – | – | – | – |
| CCCS(=O)(=O)N1CCC(CNC(=O)c2ccccc2Cl)(c2cccc(OC)n2)CC1 | 8.16 | < 4.52 | < 4.52 | – | – |
| CCCS(=O)(=O)N1CCC(CNC(=O)c2ccc(Cl)cc2Cl)(c2ccncc2)CC1 | 7.10 | – | – | – | – |
| CCCS(=O)(=O)N1CCC(c2ccccn2)([C@@H](C)NC(=O)c2cc(F)cc(F)c2Cl)CC1 | 6.24 | – | – | – | – |
| CCCS(=O)(=O)N1CCC(CNC(=O)c2c(F)ccc(F)c2Cl)(c2ccccn2)CC1 | 8.24 | < 4.52 | < 4.52 | – | – |
| CCCS(=O)(=O)N1CCC(c2ccccc2)([C@H](C)NC(=O)c2c(N)cccc2Cl)CC1 | – | – | – | – | 8.59 |

Second part, the molecule after the results:

| pIC50 [1] | pIC50 [2] | pIC50 [3] | solubility [4] [µg/mL] | pIC50 [5] | SMILES |
| --- | --- | --- | --- | --- | --- |
| 6.29 | < 4.52 | < 4.52 | – | – | CCCS(=O)(=O)N1CCC(CNC(=O)c2cccc(Cl)c2)(c2ccccn2)CC1 |
| 8.52 | < 4.52 | < 4.52 | – | – | CCCS(=O)(=O)N1CCC(CNC(=O)c2ccccc2Cl)(c2cccc(C)n2)CC1 |
| 8.36 | < 4.52 | < 4.52 | – | – | CCCS(=O)(=O)N1CCC(CNC(=O)c2ccc(Cl)cc2Cl)(c2ccccn2)CC1 |
| 7.31 | < 4.52 | < 4.52 | – | – | CCCS(=O)(=O)N1CCC(CNC(=O)c2ccccc2F)(c2ccccn2)CC1 |
| 7.92 | < 4.52 | < 4.52 | – | – | CCCS(=O)(=O)N1CCC(CNC(=O)c2ccccc2Cl)(c2ccccn2)CC1 |
| 7.42 | < 4.52 | < 4.52 | – | – | CCCS(=O)(=O)N1CCC(CNC(=O)c2ccccc2Cl)(c2cc(C)ccn2)CC1 |
| 7.50 | < 4.52 | < 4.52 | – | – | CCCS(=O)(=O)N1CCC(CNC(=O)c2ccccc2C(F)(F)F)(c2ccccn2)CC1 |
| 8.18 | < 4.52 | < 4.52 | – | – | CCCS(=O)(=O)N1CCC(CNC(=O)c2c(Cl)cccc2Cl)(c2ccccn2)CC1 |
| 6.89 | < 4.52 | < 4.52 | – | – | CCCS(=O)(=O)N1CCC(CNC(=O)c2ccccc2)(c2cc(C)ccn2)CC1 |
| 6.88 | < 4.52 | < 4.52 | – | – | CCCS(=O)(=O)N1CCC(CNC(=O)c2ccc(Cl)c(Cl)c2)(c2ccccn2)CC1 |
| 8.46 | < 4.52 | < 4.52 | – | – | CCCS(=O)(=O)N1CCC(CNC(=O)c2ccc(Cl)cc2Cl)(c2cc(C)ccn2)CC1 |
| 7.71 | < 4.52 | < 4.52 | – | – | CCCS(=O)(=O)N1CCC(CNC(=O)c2ccccc2C)(c2ccccn2)CC1 |
| 6.99 | < 4.52 | < 4.52 | – | – | CCCS(=O)(=O)N1CCC(CNC(=O)c2ccc(Cl)cc2)(c2ccccn2)CC1 |
| 6.97 | < 4.52 | < 4.52 | – | – | CCCS(=O)(=O)N1CCC(CNC(=O)c2ccccc2)(c2ccccn2)CC1 |
| 6.08 | < 4.52 | < 4.52 | – | – | CCCS(=O)(=O)N1CCC(CNC(=O)c2cccc(C)c2)(c2ccccn2)CC1 |
| 8.16 | < 4.52 | < 4.52 | – | – | CCCS(=O)(=O)N1CCC(CNC(=O)c2c(N)cccc2Cl)(c2ccccn2)CC1 |
| 7.32 | < 4.52 | < 4.52 | – | – | CCCS(=O)(=O)N1CCC(CNC(=O)c2ccccc2)(c2cccc(OC)n2)CC1 |
| 7.26 | < 4.52 | < 4.52 | – | – | CCCS(=O)(=O)N1CCC(CNC(=O)c2ccccc2)(c2cccc(C)n2)CC1 |
| < 5.30 | – | – | – | – | CCCS(=O)(=O)N1CCC(CNC(=O)c2ccccc2)(c2cccc(N3CCOCC3)n2)CC1 |
